Test results published in patent US12486489B2, “Culture medium for testing drug resistance of H.pylori as well as preparation method and use thereof” (priority 2022, dated 2025).
Like-named read-outs stand apart in the source and are kept apart here.

Tests used:
H. pylori [1] = experiment: Verification of resistance breakpoint: growth of laboratory strains on Columbia solid culture medium with added antibiotics, 72 hours; format: cell-based, Helicobacter pylori
Experimental: The plates are cooled and inverted for approximately 10 mL/piece, marked properly for the subsequent use.
(2) Preparation of bacterial solution: H. pylori grown in logarithmic phase on a solid plate is taken to prepare a bacterial suspension by using BHI. The concentration OD600 is adjusted to 0.3 (1×10^8 CFU/mL), diluted 10 times for the subsequent use.
(3) Inoculation of bacterial solution: 10 μL of bacterial solution is taken and added to Columbia culture medium and the results are determined after cultivating for 72 hours.
(4) Result determination: the minimum drug concentration for no growth of bacteria on the plate is the minimum inhibitory concentration of the bacteria against the drug.

H. pylori [2] = experiment: Drug resistance testing of laboratory strains on characteristic culture medium (discoloration after 36 hours); format: cell-based, Helicobacter pylori
Experimental: The characteristic culture media (A, B, C, D, E) are cultivated at a constant temperature of 37° C. for 36 hours in a three gas incubator. The characteristic culture media are removed and placed in a natural environment for 30 minutes to observe whether there are discolorations at the point of the culture medium where the specimen is dropped in. […] Another 100 μL of the specimen is taken and coated on Columbia solid culture medium and cultivated in a three gas incubator at a constant temperature of 37° C. for 3 days to 5 days. The number of colonies on the plate is counted to determine the initial inoculation amount. The micro dilution method is adopted to test the MIC of clinical specimen H. pylori, the test is meaningful only when there is no bacterial growth in the negative control well without bacteria and there is bacterial growth in the positive well with bacteria but without antibiotics. […] The results are recorded and whether the micro dilution method and characteristic culture medium are consistent with each other in evaluating the drug resistance of clinical H. pylori strains is compared. […]
(2) Inoculation of bacterial solution: 10 μL bacterial solution is taken and added dropwise onto a characteristic culture medium with 5 pieces (ABCDE) in total.
(3) Culture: all plates are moved to a three gas incubator and cultivated at 37° C. for 36 hours. After being taken out and placed in a natural environment for 30 minutes, whether the bacteria have resistance is determined based on the discoloration of the characteristic culture medium.

[3] = test system: clinical H. pylori strain; experiment: Drug resistance testing of clinical specimens on characteristic culture medium (discoloration after 36 hours); format: cell-based, Helicobacter pylori
Experimental: (§1) The characteristic culture media (A, B, C, D, E) are cultivated at a constant temperature of 37° C. for 36 hours in a three gas incubator. The characteristic culture media are removed and placed in a natural environment for 30 minutes to observe whether there are discolorations at the point of the culture medium where the specimen is dropped in. […] Another 100 μL of the specimen is taken and coated on Columbia solid culture medium and cultivated in a three gas incubator at a constant temperature of 37° C. for 3 days to 5 days. The number of colonies on the plate is counted to determine the initial inoculation amount. The micro dilution method is adopted to test the MIC of clinical specimen H. pylori, the test is meaningful only when there is no bacterial growth in the negative control well without bacteria and there is bacterial growth in the positive well with bacteria but without antibiotics.
(1) Transfer liquid preparation: after sterilization and cooling, BHI culture medium is added with 10% calf serum, followed by 30% glycerol to prepare H. pylori preservation solution. On this basis, 1% H. pylori selective additive is added to prepare the transfer liquid. 1 mL of transfer solution is taken into a sterile EP tube, and 6-8 sterilized small steel balls are poured into the EP tube for the subsequent use.
(3) Specimen acquisition: a biopsy tissue group is obtained from the gastric antrum and a small curvature side of the gastric body through a gastroscopy biopsy passage and placed into an EP tube (strictly sterile operation). The biopsy tissue is placed on the ice surface and transferred as soon as possible (within 2 hours) to complete the subsequent steps.
(4) Preparation of bacterial solution containing tissue: the EP tube containing tissue is placed in a homogenizer at 300 hz and crushed for 5 minutes, transferred to another EP, centrifuged at 12000 rpm for 2 minutes, the supernatant is discarded, BHI is resuspended to 200 μL, and a bacterial suspension is prepared for the subsequent use.
(5) Inoculation of bacterial solution: 10 μL of bacterial solution is taken and added dropwise to the characteristic culture medium (5 pieces in total). The characteristic culture medium is removed after cultivating in a three gas incubator at 37° C. for 36 hours, and the results are determined after leaving for 30 minutes; another 100 μL is taken and coated onto Colombian culture medium for the traditional bacterial culture.

[4] = test system: clinical H. pylori strain; experiment: MIC of clinical H. pylori strains by micro dilution method; format: cell-based; settings: Helicobacter pylori, 72 h, approximately 1.0×10^6 CFU/mL per well, 72 hours, read-out: MIC
Experimental: as §1
H. pylori single colony grown on Colombian culture medium is taken (which is confirmed as H. pylori by urease, oxidase, catalase, and PCR testing of CagA gene, as illustrated in FIG. 13) and the bacteria are increased. During the preparation of MIC plates and bacterial solution, H. pylori with logarithmic growth phase is taken to prepare a bacterial suspension by using BHI. The concentration OD600 is adjusted to 0.3 (1×10^8 CFU/mL, diluted 10 times, 10 μL is taken and added to wells 1-8 (with a bacterial solution concentration of approximately 1.0×10^6 CFU/mL per well, cultivated for 72 hours to determine the results.

H. pylori [5] = settings: bacterial count 1×10^6 CFU/mL; cited from earlier work

For `CC1(C)S[C@@H]2[C@H](NC(=O)[C@H](N)c3ccc(O)cc3)C(=O)N2[C@H]1C(=O)O` [Amoxicillin, amoxicillin], the “growth of sensitive strains” value (H. pylori [1]; levofloxacin 0.5, clarithromycin 0.5, metronidazole 4, amoxicillin 0.5 μg/mL) was “no sensitive strain grows”, the growth of bacterial (H. pylori [1]; strain 159, antibiotic 0.0313 μg/mL) was “+” and the growth of bacterial (H. pylori [1]; strain 161, antibiotic 0.0313 μg/mL) was “+”. The growth of bacterial (H. pylori [1]; strain 162, antibiotic 0.0313 μg/mL) was “+”, the growth of bacterial (H. pylori [1]; strain 163, antibiotic 0.0313 μg/mL) was “+” and the growth of bacterial (H. pylori [1]; strain 286, antibiotic 0.0313 μg/mL) was “−”. The growth of bacterial (H. pylori [1]; strain 287, antibiotic 0.0313 μg/mL) was “+”, the growth of bacterial (H. pylori [1]; strain 289, antibiotic 0.0313 μg/mL) was “+” and the growth of bacterial (H. pylori [1]; strain 290, antibiotic 0.0313 μg/mL) was “+”. The growth of bacterial (H. pylori [1]; strain 26695, antibiotic 0.0313 μg/mL) was “+”, the growth of bacterial (H. pylori [1]; strain G27, antibiotic 0.0313 μg/mL) was “+” and the “drug resistance determined by discoloration of characteristic culture medium” value (H. pylori [2]; strain 159, 1×10^6 CFU/mL) was “sensitive”. For the same compound, the “drug resistance determined by discoloration of characteristic culture medium” value (H. pylori [2]; strain 286, 1×10^6 CFU/mL) was “have developed resistance”, the “drug resistance determined by discoloration of characteristic culture medium” value (H. pylori [2]; strain 287, 1×10^6 CFU/mL) was “have developed resistance” and the “drug resistance determined by discoloration of characteristic culture medium” value (H. pylori [2]; strain 289, 1×10^6 CFU/mL) was “have developed resistance”. For the same compound, the “drug resistance determined by discoloration of characteristic culture medium” value (H. pylori [2]; strain G27, 1×10^6 CFU/mL) was “does not develop resistance”, the “drug resistance determined on characteristic culture medium” value ([3]; clinical H. pylori strain FY-31) was “sensitive” and the “drug resistance determined on characteristic culture medium” value ([3]; clinical H. pylori strain FY-43) was “sensitive”. The “drug resistance determined on characteristic culture medium” value ([3]; clinical H. pylori strain FY-47) was “sensitive”, the “drug resistance determined on characteristic culture medium” value ([3]; clinical H. pylori strain FY-52) was “sensitive” and the MIC ([4]; clinical strain FY-31) was 0.0312 µg/mL. For the same compound, the MIC ([4]; clinical strain FY-43) was 0.0312 µg/mL, the MIC ([4]; clinical strain FY-47) was 0.0312 µg/mL and the MIC ([4]; clinical strain FY-52) was < 0.0312 µg/mL. The “resistance breakpoints of H. pylori according to CLSI guidelines” value (H. pylori [5]) was 0.5 µg/mL.

In the case of `C[C@H]1COc2c(N3CCN(C)CC3)c(F)cc3c(=O)c(C(=O)O)cn1c23` [Levofloxacin, levofloxacin], the “optimal concentration for adding antibiotics” value (H. pylori [1]; conclusion of breakpoint verification) is reported as 0.5 µg/mL, the growth of bacterial (H. pylori [1]; strain 159, antibiotic 0.25 μg/mL) is reported as “+” and the growth of bacterial (H. pylori [1]; strain 159, antibiotic 0.5 μg/mL) is reported as “+”. For the same compound, the growth of bacterial (H. pylori [1]; strain 159, antibiotic 1 μg/mL) was “−”, the growth of bacterial (H. pylori [1]; strain 161, antibiotic 0.25 μg/mL) was “+” and the growth of bacterial (H. pylori [1]; strain 161, antibiotic 0.5 μg/mL) was “+”. For the same compound, the growth of bacterial (H. pylori [1]; strain 161, antibiotic 1 μg/mL) was “−”, the growth of bacterial (H. pylori [1]; strain 162, antibiotic 0.25 μg/mL) was “+” and the growth of bacterial (H. pylori [1]; strain 162, antibiotic 0.5 μg/mL) was “+”. For the same compound, the growth of bacterial (H. pylori [1]; strain 162, antibiotic 1 μg/mL) was “−”, the growth of bacterial (H. pylori [1]; strain 163, antibiotic 0.25 μg/mL) was “+” and the growth of bacterial (H. pylori [1]; strain 163, antibiotic 0.5 μg/mL) was “+”. For the same compound, the growth of bacterial (H. pylori [1]; strain 163, antibiotic 1 μg/mL) was “−”, the growth of bacterial (H. pylori [1]; strain 286, antibiotic 0.25 μg/mL) was “+” and the growth of bacterial (H. pylori [1]; strain 286, antibiotic 0.5 μg/mL) was “+”. For the same compound, the growth of bacterial (H. pylori [1]; strain 286, antibiotic 1 μg/mL) was “−”, the growth of bacterial (H. pylori [1]; strain 287, antibiotic 0.25 μg/mL) was “+” and the growth of bacterial (H. pylori [1]; strain 287, antibiotic 0.5 μg/mL) was “+”. For the same compound, the growth of bacterial (H. pylori [1]; strain 287, antibiotic 1 μg/mL) was “−”, the growth of bacterial (H. pylori [1]; strain 289, antibiotic 0.25 μg/mL) was “+” and the growth of bacterial (H. pylori [1]; strain 289, antibiotic 0.5 μg/mL) was “+”. For the same compound, the growth of bacterial (H. pylori [1]; strain 289, antibiotic 1 μg/mL) was “+”, the growth of bacterial (H. pylori [1]; strain 290, antibiotic 0.25 μg/mL) was “+” and the growth of bacterial (H. pylori [1]; strain 290, antibiotic 0.5 μg/mL) was “+”. For the same compound, the growth of bacterial (H. pylori [1]; strain 290, antibiotic 1 μg/mL) was “+”, the growth of bacterial (H. pylori [1]; strain 26695, antibiotic 0.25 μg/mL) was “−” and the growth of bacterial (H. pylori [1]; strain 26695, antibiotic 0.5 μg/mL) was “−”. The growth of bacterial (H. pylori [1]; strain 26695, antibiotic 1 μg/mL) was “−”, the growth of bacterial (H. pylori [1]; strain G27, antibiotic 0.25 μg/mL) was “+” and the growth of bacterial (H. pylori [1]; strain G27, antibiotic 0.5 μg/mL) was “−”. For the same compound, the growth of bacterial (H. pylori [1]; strain G27, antibiotic 1 μg/mL) was “−”, the MIC ([4]; clinical strain FY-31) was 16 µg/mL and the MIC ([4]; clinical strain FY-43) was 1 µg/mL. For the same compound, the MIC ([4]; clinical strain FY-47) was 0.5 µg/mL and the MIC ([4]; clinical strain FY-52) was 0.25 µg/mL.
